pIC50: −log10 of the molar value.

The target in the experiment is T1, Human eIF4E (Homo sapiens, UniProt P06730).
T1 construct: Human eIF4E (aa 28-217) with a C-terminal His-tag; made in house
T1 sequence (P06730 28-217): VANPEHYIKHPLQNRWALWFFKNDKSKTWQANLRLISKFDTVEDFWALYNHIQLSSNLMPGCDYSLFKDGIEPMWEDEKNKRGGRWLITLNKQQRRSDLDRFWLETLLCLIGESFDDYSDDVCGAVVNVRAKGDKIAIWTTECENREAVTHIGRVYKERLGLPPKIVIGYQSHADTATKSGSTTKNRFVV
Put plainly: Human eIF4E/4G2 binding assay (TR-FRET). To be noted: eIF4E (aa 28-217) with biotin labeled 4G2 peptide. The method, then:
Human eIF4E (aa 28-217) with a C-terminal His-tag was expressed in E. coli in inclusion bodies. The protein was solubilized with 8 M urea and purified under denaturing conditions using nickel-charged HisTrap HP columns (GE Healthcare). The purified protein was then refolded by diluting in 20 mM Hepes pH 7.0, 0.5 M NaCl, 1 mM DTT, 1 mM EDTA, 0.5 M arginine plus 6 M urea, and then dialyzing overnight into the same buffer without the urea. The protein was further dialyzed into 20 mM Hepes, pH 6.5, 50 mM NaCl, 1 mM EDTA, 1 mM DTT, and concentrated using Hitrap SP sepharose FF columns (GE Healthcare). The concentrated protein was dialyzed into 20 mM Hepes, pH 7.0, 0.5M NaCl, 5 mM DTT and 10% glycerol, and stored at −80° C. until use.
Test compounds (3.43 mM stock in DMSO) were diluted 2-fold in series in DMSO (10 concentration points). Compound solutions (1.2 μl/well) were added into black 384-well polypropylene microplates (Matrix, Thermal Scientific). Twenty-two microliters per well of Assay Buffer (50 mM NaPi, pH 6.5, 50 mM KCl, 1 mM DTT and 0.5 mg/ml gamma globulin) and eight microliters per well of 82.5 nM purified eIF4E in Assay Buffer were added. The samples were incubated at room temperature (20-23° C.) for 15 min. Biotin labeled 4G2 peptide (Ac-Lys-Gln-Tyr-Asp-Arg-Glu-Phe-Leu-Leu-Asp-Phe-Gln-Phe-Met-Pro-Lys(Aha-Bio)-NH2, 1.75 μM stock in DMSO) was diluted to 0.14 μM in Assay Buffer (without DTT) and 5 μl/well was added. The samples were incubated at room temperature for 15 min. Five microliters per well of 6.4 nM Eu-streptavidin (Eu-SA, Perkin Elmer) and 80 nM Allophycocyanin (APC)-anti His antibody (Columbia Biosciences) in Assay Buffer (without DTT) were then added and the samples were incubated at room temperature for 20 min.
Assay signals were monitored by reading excitation at 340 nm and emission fluorescence at 615 nm and 665 nm on an Envision reader (Perkin Elmer). Normalized TR-FRET (time-resolved fluorescence resonance energy transfer) assay signal (Rn) was calculated by the formula: Rn═[(A−Ba−C×D)/(D−Bd)]×(Dc−Bd) • Where A is the fluorescence intensity of the sample at 665 nm, • D is the fluorescence intensity of the sample at 615 nm, • Ba and Bd are plate backgrounds at 665 nm and 615 nm, respectively, • Dc is the fluorescence intensity of 0.78 nM Eu-SA in the assay buffer at 615 nm • The cross-talk factor (C) is determined by the following formula: C=(Ac−Ba)/(Dc−Bd) • Where Ac is the fluorescence intensity of 0.78 nM Eu-SA in the assay buffer at 665 nm.
IC50 values were calculated using xLFit program (IDBS).
(Time-resolved FRET reads energy transfer from a long-lived donor to a nearby acceptor.)
As to `CC1(C(=O)O)CN(c2nc(-c3ccc(-c4ccc(F)cc4)cc3)c(-c3ccccc3)s2)C1` [Compound I-83], the pIC50 was more than 5.30. The molecule `CC1(C(=O)O)CN(c2nc(-c3ccc(-c4ccc(F)cc4)nc3)c(-c3cncnc3)s2)C1` [Compound I-84] gave a pIC50 of less than 4.60. For `CC1(C(=O)O)CN(c2nc(-c3ccc(-c4ccc(F)cc4)cc3)c(-c3cccnc3)s2)C1` [Compound I-85] the value was less than 4.60. `CC1(C(=O)O)CN(c2nc(-c3ccc(-c4ccc(F)cc4)cc3)c(-c3cccc4[nH]ccc34)s2)C1` [Compound I-86] had a pIC50 of 4.60 to 5.30. For `CCCC(CNc1nc(-c2ccc(-c3ccc(F)cc3)cc2)cs1)C(=O)O` (stereo not shown) [Compound I-87] the value was less than 4.60; for `CCCC(CNc1nc(-c2ccc(-c3ccc(F)cc3)cc2)c(Br)s1)C(=O)O` (stereo not shown) [Compound I-88], 4.60 to 5.30.

`CCCC(CNc1nc(-c2ccc(-c3ccc(F)cc3)cc2)c(-c2ccccc2)s1)C(=O)O` (stereo not shown) [Compound I-89] had a pIC50 of more than 5.30. Molecule `CCCC(CNc1nc(-c2ccc(-c3ccc(F)cc3)cc2)c(-c2cncnc2)s1)C(=O)O` (stereo not shown) [Compound I-90] had a pIC50 of less than 4.60. As for `CCCC(CNc1nc(-c2ccc(-c3ccc(F)cc3)cc2)c(-c2cccnc2)s1)C(=O)O` (stereo not shown) [Compound I-91], the figure is less than 4.60; as for `CCCC(CNc1nc(-c2ccc(-c3ccc(F)cc3)cc2)c(-c2cccc3[nH]ccc23)s1)C(=O)O` (stereo not shown) [Compound I-92], 4.60 to 5.30. The molecule `CC(CC(=O)O)Nc1nc(-c2ccc(-c3ccc(F)cc3)cc2)cs1` (stereo not shown) [Compound I-93] showed a negative-log IC50 (pIC50) of less than 4.60.

For `CC(CC(=O)O)Nc1nc(-c2ccc(-c3ccc(F)cc3)cc2)c(Br)s1` (stereo not shown) [Compound I-94], the pIC50 was 4.60 to 5.30.

On to `CC(CC(=O)O)Nc1nc(-c2ccc(-c3ccc(F)cc3)cc2)c(-c2ccccc2)s1` (stereo not shown) [Compound I-95], for which the negative logarithm of the IC50 (pIC50) is 4.60 to 5.30.

Take `CC(CC(=O)O)Nc1nc(-c2ccc(-c3ccc(F)cc3)cc2)c(-c2cncnc2)s1` (stereo not shown) [Compound I-96]: the pIC50 was less than 4.60. For `CC(CC(=O)O)Nc1nc(-c2ccc(-c3ccc(F)cc3)cc2)c(-c2cccnc2)s1` (stereo not shown) [Compound I-97] the value was less than 4.60; for `CC(CC(=O)O)Nc1nc(-c2ccc(-c3ccc(F)cc3)cc2)c(-c2cccc3[nH]ccc23)s1` (stereo not shown) [Compound I-98], 4.60 to 5.30. As to `CC(CNc1nc(-c2ccc(-c3ccc(F)cc3)cc2)cs1)C(=O)O` (stereo not shown) [Compound I-99], the pIC50 was less than 4.60. The molecule `CC(CNc1nc(-c2ccc(-c3ccc(F)cc3)cc2)c(Br)s1)C(=O)O` (stereo not shown) [Compound I-100] gave a pIC50 of 4.60 to 5.30. As for `CC(CNc1nc(-c2ccc(-c3ccc(F)cc3)cc2)c(-c2ccccc2)s1)C(=O)O` (stereo not shown) [Compound I-101], the figure is 4.60 to 5.30; as for `CC(CNc1nc(-c2cncnc2)c(-c2ccc(-c3ccc(F)cc3)cc2)s1)C(=O)O` (stereo not shown) [Compound I-102], less than 4.60. As for `CC(CNc1nc(-c2ccc(-c3ccc(F)cc3)cc2)c(-c2cccnc2)s1)C(=O)O` (stereo not shown) [Compound I-103], the figure is less than 4.60; as for `CC(CNc1nc(-c2ccc(-c3ccc(F)cc3)cc2)c(-c2cccc3[nH]ccc23)s1)C(=O)O` (stereo not shown) [Compound I-104], 4.60 to 5.30; as for `O=C(O)C1CCCN(c2nc(-c3ccc(-c4ccc(F)cc4)cc3)cs2)C1` (stereo not shown) [Compound I-105], 4.60 to 5.30. For `O=C(O)C1CCCN(c2nc(-c3ccc(-c4ccc(F)cc4)cc3)c(-c3ccccc3)s2)C1` (stereo not shown) [Compound I-106] the value was more than 5.30; for `O=C(O)C1CCCN(c2nc(-c3ccc(-c4ccc(F)cc4)cc3)c(-c3cncnc3)s2)C1` (stereo not shown) [Compound I-107], less than 4.60; for `O=C(O)C1CCCN(c2nc(-c3ccc(-c4ccc(F)cc4)cc3)c(-c3cccnc3)s2)C1` (stereo not shown) [Compound I-108], 4.60 to 5.30.

Molecule `O=C(O)C1CCCN(c2nc(-c3ccc(-c4ccc(F)cc4)cc3)c(-c3cccc4[nH]ccc34)s2)C1` (stereo not shown) [Compound I-109] showed a pIC50 of more than 5.30. For the molecule `O=C(O)CC1CCCN1c1nc(-c2ccc(-c3ccc(F)cc3)cc2)cs1` (stereo not shown) [Compound I-110], the pIC50 is less than 4.60.

Take `O=C(O)CC1CCCN1c1nc(-c2ccc(-c3ccc(F)cc3)cc2)c(-c2ccccc2)s1` (stereo not shown) [Compound I-111]: the pIC50 was more than 5.30. For the molecule `O=C(O)CC1CCCN1c1nc(-c2ccc(-c3ccc(F)cc3)nc2)c(-c2cncnc2)s1` (stereo not shown) [Compound I-112], the pIC50 was less than 4.60.

For the molecule `O=C(O)CC1CCCN1c1nc(-c2ccc(-c3ccc(F)cc3)cc2)c(-c2cccnc2)s1` (stereo not shown) [Compound I-113], the pIC50 was less than 4.60. Turning to `O=C(O)CC1CCCN1c1nc(-c2ccc(-c3ccc(F)cc3)cc2)c(-c2cccc3[nH]ccc23)s1` (stereo not shown) [Compound I-114], the pIC50 was more than 5.30. `O=C(O)C1CCN(c2nc(-c3ccc(-c4ccc(F)cc4)cc3)cs2)C1` (stereo not shown) [Compound I-115] gave a pIC50 of less than 4.60.

The molecule `O=C(O)C1CCN(c2nc(-c3ccc(-c4ccc(F)cc4)cc3)c(-c3ccccc3)s2)C1` (stereo not shown) [Compound I-116] had a pIC50 of more than 5.30. As for `O=C(O)C1CCN(c2nc(-c3ccc(-c4ccc(F)cc4)cc3)c(-c3cncnc3)s2)C1` (stereo not shown) [Compound I-117], the figure is less than 4.60; as for `O=C(O)C1CCN(c2nc(-c3ccc(-c4ccc(F)cc4)cc3)c(-c3cccnc3)s2)C1` (stereo not shown) [Compound I-118], less than 4.60. For `O=C(O)C1CCN(c2nc(-c3ccc(-c4ccc(F)cc4)cc3)c(-c3cccc4[nH]ccc34)s2)C1` (stereo not shown) [Compound I-119] the value was 4.60 to 5.30; for `O=C(O)C1(CNc2nc(-c3ccc(-c4ccc(F)cc4)cc3)cs2)CC1` [Compound I-120], less than 4.60; for `O=C(O)C1(CNc2nc(-c3ccc(-c4ccc(F)cc4)cc3)c(Br)s2)CC1` [Compound I-121], 4.60 to 5.30. As for `O=C(O)C1(CNc2nc(-c3ccc(-c4ccc(F)cc4)cc3)c(-c3ccccc3)s2)CC1` [Compound I-122], the figure is more than 5.30. `O=C(O)C1(CNc2nc(-c3ccc(-c4ccc(F)cc4)cc3)c(-c3cncnc3)s2)CC1` [Compound I-123] showed a negative-log IC50 (pIC50) of less than 4.60.

`O=C(O)C1(CNc2nc(-c3ccc(-c4ccc(F)cc4)cc3)c(-c3cccnc3)s2)CC1` [Compound I-124] showed a pIC50 of less than 4.60. In the case of `O=C(O)C1(CNc2nc(-c3ccc(-c4ccc(F)cc4)cc3)c(-c3cccc4[nH]ccc34)s2)CC1` [Compound I-125], the pIC50 was more than 5.30. The molecule `O=C(O)C1CC(CNc2nc(-c3ccc(-c4ccc(F)cc4)cc3)cs2)C1` (stereo not shown) [Compound I-126] showed a negative logarithm of the IC50 (pIC50) of less than 4.60.

In turn, `O=C(O)C1CC(CNc2nc(-c3ccc(-c4ccc(F)cc4)cc3)c(Br)s2)C1` (stereo not shown) [Compound I-127] gave a pIC50 of 4.60 to 5.30.

In the case of `O=C(O)C1CC(CNc2nc(-c3ccc(-c4ccc(F)cc4)cc3)c(-c3ccccc3)s2)C1` (stereo not shown) [Compound I-128], the pIC50 was more than 5.30. `O=C(O)C1CC(CNc2nc(-c3ccc(-c4ccc(F)cc4)cc3)c(-c3cncnc3)s2)C1` (stereo not shown) [Compound I-129] had a pIC50 of less than 4.60.

`O=C(O)C1CC(CNc2nc(-c3ccc(-c4ccc(F)cc4)cc3)c(-c3cccnc3)s2)C1` (stereo not shown) [Compound I-130] had a pIC50 of less than 4.60. For `O=C(O)C1CC(CNc2nc(-c3ccc(-c4ccc(F)cc4)cc3)c(-c3cccc4[nH]ccc34)s2)C1` (stereo not shown) [Compound I-131] the value was 4.60 to 5.30; for `O=C(O)C1CCN(c2nc(-c3ccc(-c4ccc(F)cc4)cc3)c(-c3ccccc3)s2)CC1` [Compound I-136], more than 5.30. Regarding `O=C(O)C1CCN(c2nc(-c3ccc(-c4ccc(F)cc4)cc3)c(-c3cncnc3)s2)CC1` [Compound I-137], the pIC50 was less than 4.60. Take `O=C(O)C1CCN(c2nc(-c3ccc(-c4ccc(F)cc4)cc3)c(-c3cccnc3)s2)CC1` [Compound I-138]: the pIC50 was 4.60 to 5.30. As for `O=C(O)C1CCN(c2nc(-c3ccc(-c4ccc(F)cc4)cc3)c(-c3cccc4[nH]ccc34)s2)CC1` [Compound I-139], the figure is 4.60 to 5.30; as for `O=C(O)C1CN(c2nc(-c3ccc(-c4ccc(F)cc4)cc3)c(-c3ccccc3)s2)CCO1` (stereo not shown) [Compound I-140], more than 5.30. For `O=C(O)C1CN(c2nc(-c3ccc(-c4ccc(F)cc4)cc3)c(-c3cncnc3)s2)CCO1` (stereo not shown) [Compound I-141] the value was less than 4.60.

The term pIC50 denotes −log10 of the IC50, conventionally taken in molar units. Lower therefore signals a high IC50.
